Results as given in ChEMBL document CHEMBL2331247, “Anti-inflammatory norditerpenoids from the soft coral Sinularia maxima” (Bioorg Med Chem Lett, 2013).

Key:
Assay type in all cases: functional
[1] = Antiinflammatory activity against in C57BL/6 mouse BMDC assessed as inhibition of LPS-stimulated TNFalpha production compound pre-incubated for 1 hr before LPS challenge by ELISA
[2] = Antiinflammatory activity against in C57BL/6 mouse BMDC assessed as inhibition of LPS-stimulated IL6 production compound pre-incubated for 1 hr before LPS challenge by ELISA
[3] = Antiinflammatory activity against in C57BL/6 mouse BMDC assessed as inhibition of LPS-stimulated IL12 production compound pre-incubated for 1 hr before LPS challenge by ELISA

Structure (SMILES) | IC50 [1] [µM] | IC50 [2] [µM] | IC50 [3] [µM]
C=C(C)[C@H]1CCC2=C[C@@H](C[C@@]3(C)CC(=O)[C@H](CC(=O)C1)O3)OC2=O | > 100 | > 100 | > 100
C=C(C)[C@@H]1CC(=O)CC2=C(C1)[C@]1(O)C(=O)O[C@@H]3C[C@](C)(O)[C@H](C2=O)[C@@H]31 | > 100 | > 100 | > 100
C=C(C)[C@@H]1CC(=O)C[C@@H]2O[C@](C)(CC2=O)C[C@@H]2C=C(C(=O)O2)[C@H](OC)C1 | > 100 | 13.1 | 5.3
C=C(C)[C@@H]1CC(=O)[C@H]2[C@H](C1)[C@@H]1C(=O)O[C@@H]3C[C@@]4(C)O[C@H]2C(=O)[C@@H]4[C@H]13 [INELEGANOLIDE] | > 100 | > 100 | > 100
C=C(C)[C@H]1C/C=C(\C(=O)OC)CC(=O)C[C@@]2(C)CC(=O)[C@@H](CC(=O)C1)O2 [NORCEMBRENE 5] | > 100 | > 100 | > 100
C[S+]([O-])c1ccc(-c2nc(-c3ccc(F)cc3)c(-c3ccncc3)[nH]2)cc1 (centres undefined) [SB-203580] | 7.37 | 3.56 | 5.67
C=C(C)[C@@H]1CC(=O)CC2=C(C1)[C@@H]1C(=O)O[C@@H]3C[C@](C)(O)[C@H](C2=O)[C@H]13 [SCABROLIDE A] | > 100 | 69.9 | 23.5
C=C(C)[C@@H]1CC(=O)CC2=C(C1)[C@@H]1C(=O)O[C@@H]3CC(C)=C(C2=O)[C@H]13 [YONAROLIDE] | > 100 | > 100 | > 100
